3 molecules from US20220323406A1, “METHODS AND COMPOSITIONS FOR DIFFERENTIATING STEM CELLS” (Massachusetts Institute of Technology, priority 2019, published 2022) can be followed below.

Experiment [1] has as its system ENR+CD organoids (ISC to Paneth cell differentiation). The experiment is described as follows: Primary screen: basal (non-stimulated) lysozyme secretion LYZ.NS, 2.5-D 384-well ENR+CD organoid differentiation. The experiment is classed as cell-based, mouse. The conditions noted are these: primary screen; for Z.LYZ.NS: standard z score. The text has this:
(§1) High-throughput screening.

Experiment [2] has the same test system. The experiment is described as follows: Primary screen: CCh-stimulated lysozyme secretion LYZ.S, 2.5-D 384-well ENR+CD organoid differentiation. The experiment is classed as cell-based, mouse. The conditions noted are these: primary screen.
Description: as §1

A further experiment relates to ENR+CD organoids. The experiment is described as follows: Primary screen: ATP (CellTiter-Glo 3D, CTG) cell number/viability, 2.5-D 384-well ENR+CD organoids.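 For all read-outs here: compounds given at plating and again on day 3 over a 6-day differentiation from ENR+CV stem-cell-enriched precursors, ATP measured on day 6, plate median as control.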 Particulars: primary screen; for Z.CTG: standard z score.
[3] abbreviates: dose 0.08 uM, FC vs plate median.
The mark [4] stands for this setting: dose 0.40 uM, FC vs plate median.
[5] abbreviates: dose 2.00 uM, FC vs plate median.
Setting [6] is: dose 10.00 uM, FC vs plate median.
Where [7] appears, read: dose 0.08 uM, FC relative to plate median.
The mark [8] stands for this setting: dose 0.40 uM, FC relative to plate median.
Setting [9] is: dose 2.00 uM, FC relative to plate median.
[10] abbreviates: dose 10.00 uM, FC relative to plate median.

In the case of `Nc1ncnc2c1c(-c1cccc(OCc3ccccc3)c1)cn2C1CC(CN2CCCC2)C1` (stereo not drawn) [NVP-ADW742], the Z.LYZ.NS in experiment [1] (dose 0.08 uM) is 1.239; in experiment [1] (dose 0.40 uM), 1.499; in experiment [1] (dose 2.00 uM), −0.823; in experiment [1] (dose 10.00 uM), −1.172. For the same molecule, the Dose.FC.LYZ.NS was 0.142 log2 fold change in experiment [1] (setting [3]), 0.172 log2 fold change in experiment [1] (setting [4]), −0.095 log2 fold change in experiment [1] (setting [5]) and −0.135 log2 fold change in experiment [1] (setting [6]). The Dose.FC.LYZ.S in experiment [2] (setting [3]) is listed as 0.245 log2 fold change; in experiment [2] (setting [4]), 0.265 log2 fold change; in experiment [2] (setting [5]), −0.166 log2 fold change; in experiment [2] (setting [6]), −0.210 log2 fold change. The Z.CTG is 1.622 in the experiment with ENR+CD organoids (dose 0.08 uM), 1.583 in the experiment on ENR+CD organoids (dose 0.40 uM), 0.614 in the experiment on ENR+CD organoids (dose 2.00 uM) and −1.112 in the experiment with ENR+CD organoids (dose 10.00 uM). In addition, the Dose.FC.CTG in the experiment with ENR+CD organoids (setting [3]) is listed as 0.679 log2 fold change; with ENR+CD organoids (setting [4]), 0.663 log2 fold change; in the experiment on ENR+CD organoids (setting [5]), 0.257 log2 fold change; with ENR+CD organoids (setting [6]), −0.465 log2 fold change.
Consider `CCn1c(N)c(C(=O)NC)c(=O)c2ccc(C#C[C@@](C)(O)COC)nc21` [SAR131675], for which the Dose.FC.LYZ.NS in experiment [1] (setting [7]) was 0.055 log2 fold change; in experiment [1] (setting [8]), 0.089 log2 fold change; in experiment [1] (setting [9]) it was 0.021 log2 fold change; in experiment [1] (setting [10]) it was −0.088 log2 fold change. For the same molecule, the Z.LYZ.NS in experiment [1] (dose 0.08 uM) is on record as 0.483; in experiment [1] (dose 0.40 uM), 0.774; in experiment [1] (dose 2.00 uM) it was 0.181; in experiment [1] (dose 10.00 uM), −0.766. Also, the Dose.FC.LYZ.S is reported as 0.148 log2 fold change in experiment [2] (setting [7]), 0.096 log2 fold change in experiment [2] (setting [8]), 0.026 log2 fold change in experiment [2] (setting [9]) and 0.000 log2 fold change in experiment [2] (setting [10]). Besides, the Dose.FC.CTG is listed as 0.175 log2 fold change in the experiment on ENR+CD organoids (setting [7]), −0.084 log2 fold change with ENR+CD organoids (setting [8]), 0.071 log2 fold change in the experiment on ENR+CD organoids (setting [9]) and 0.062 log2 fold change with ENR+CD organoids (setting [10]). Also, the Z.CTG in the experiment with ENR+CD organoids (dose 0.08 uM) is 0.419; in the experiment on ENR+CD organoids (dose 0.40 uM), −0.201; with ENR+CD organoids (dose 2.00 uM), 0.169; with ENR+CD organoids (dose 10.00 uM), 0.149.
As for `CS(=O)(=O)c1cccc(CNc2nc(Nc3ccc4c(c3)CCC(=O)N4)ncc2C(F)(F)F)c1` [PF-573228], the Z.LYZ.NS in experiment [1] (dose 0.08 uM) is on record as 0.089; in experiment [1] (dose 0.40 uM) it was −0.401; in experiment [1] (dose 2.00 uM) it was −0.502; in experiment [1] (dose 10.00 uM), −2.180. In addition, the Dose.FC.LYZ.NS in experiment [1] (setting [3]) is reported as 0.010 log2 fold change; in experiment [1] (setting [4]), −0.046 log2 fold change; in experiment [1] (setting [5]), −0.058 log2 fold change; in experiment [1] (setting [6]) it was −0.250 log2 fold change. In addition, the Dose.FC.LYZ.S is on record as 0.114 log2 fold change in experiment [2] (setting [3]), 0.002 log2 fold change in experiment [2] (setting [4]), −0.174 log2 fold change in experiment [2] (setting [5]) and −0.305 log2 fold change in experiment [2] (setting [6]). Also, the Z.CTG with ENR+CD organoids (dose 0.08 uM) was 0.183; in the experiment with ENR+CD organoids (dose 0.40 uM), −0.129; in the experiment on ENR+CD organoids (dose 2.00 uM) it was −1.037; in the experiment with ENR+CD organoids (dose 10.00 uM), −1.188. Also, the Dose.FC.CTG is reported as 0.077 log2 fold change in the experiment with ENR+CD organoids (setting [3]), −0.054 log2 fold change in the experiment with ENR+CD organoids (setting [4]), −0.434 log2 fold change in the experiment with ENR+CD organoids (setting [5]) and −0.497 log2 fold change in the experiment on ENR+CD organoids (setting [6]).
